The test system of assay [1] is HIV-1 NL4-3 SP1 point deletion mutants. Briefly: CA-SP1 processing of NL4-3 SP1 point deletion mutants in transfected HeLa cells (Western blot). In kind it is cell-based. The procedure: To characterize the effect of deletion or substitution on viral particle production and Gag polyprotein processing, wild-type HIV-1 NL4-3 or SIVmac239 and respective mutant proviral DNAs were transfected into HeLa cells by employing FuGENE 6 transfection reagent (Roche). Briefly, cells were seeded into a 6-well plate (Corning) at a concentration of 0.5×10^5 per well the day before transfection to reach 60 to 80% confluence on the day of transfection. For each transfection, 3 μl of FuGENE 6 was diluted into 100 μl of serum-free DMEM followed by the addition of 1 μg of DNA. After gently mixing, the mixture of DNA-lipid complexes was gently added drop wise into the cells containing 2 ml of complete DMEM medium. Twenty-four hours post-transfection, medium containing DNA-FuGENE 6 complexes was removed, 2 ml of fresh DMEM was added into the transfected cells. […] The level of viral particle production for wild type NL4-3 and point deletion mutants was determined by p24 antigen capture ELISA (ZeptoMetrix, Buffalo, N.Y.). […]
Sensitivity to DSB was determined in experiments that characterized the effect of DSB on a late step in Gag processing, CA-SP1 cleavage.
Specifically, these assays measured the ability of DSB to disrupt CA-SP1 processing.
In general terms: Immunoblotting shows a protein as a band on a membrane.

The test system of assay [2] is SIVmac251. Briefly: Gag processing (western blot) in chronically infected H9/SIVmac251 cells. In kind it is cell-based, SIV. The method, then:
FIG. 2. […] Gag proteins were visualized using HIV-Ig (HIV-1) or monkey anti-SIVmac251 serum (HIV-2 and SIV; NIH AIDS Research and Reference Reagent Program).
In order to better define DSB's mechanism of action, a detailed examination was undertaken of the virus produced from HIV-1-infected cell lines treated with DSB. Briefly, H9 cells chronically infected with the HIV-1IIIB isolate were treated with DSB at 1 μg/mL for a period of 48 hrs. Indinavir was used as a control. At the 48 hr time-point, spent media was removed and fresh media containing compound was added. At 24, 48 and 72 hrs post fresh compound addition, both cells and supernatant were recovered for analysis. The level of virus in the culture supernatant was determined and western blots were used to characterize viral protein production in both cell-associated and cell-free virus. […] This defect took the form of an additional band in the western blots corresponding to p25 (FIG. 2). This p25 band results from the incomplete processing of the capsid CA-SP1 precursor. […] As discussed above, mutations at the p25 to p24 cleavage site that prevent processing are associated with defects in viral maturation and infectivity (Wiegers K. et al., J. Virol. 72:2846-54 (1998)).

Assay [3] has as its system NNRTI-resistant HIV-1 isolates. Briefly: NNRTI-resistant HIV-1 isolates in MT-2 cells, cell viability (XTT) endpoint. The note with it: X4, MT-2 cells, read-out: IC50. Type of assay: cell-based. The procedure: The activity of DSB was tested against a panel of HIV-1 isolates resistant to approved drugs. These viruses were obtained from the NIH AIDS Research and Reference Reagent Program. Assays were performed using virus propagated in PBMCs with a p24 endpoint (above), or using cell line targets (MT-2 cells) and a cell killing endpoint. The MT-2 assay format was as follows. Serial dilutions of DSB, or each approved drug, were prepared in 96 well plates. To each sample well was added media containing MT-2 cells at 3×10^5 cells/mL and virus inoculum at a concentration necessary to result in 80% killing of the cell targets at 5 days post-infection (PI). On day 5 post-infection, virus-induced cell killing was determined by the XTT method and the inhibitory activity of the compound was determined.
(Tetrazolium dyes change colour on reduction, which living cells bring about.)

Where two headings read alike, the source gives them in different places.

What is called IC50 is the midpoint of a concentration-inhibition curve.

As to `C=C(C)[C@@H]1CC[C@]2(C(=O)O)CC[C@]3(C)[C@H](CC[C@@H]4[C@@]5(C)CC[C@H](OC(=O)CC(C)(C)C(=O)O)C(C)(C)[C@@H]5CC[C@]43C)[C@@H]12` [DSB, 3-O-(3′,3′-dimethylsuccinyl)betulinic acid], the “effect on CA-SP1 processing” value in assay [1] (point deletions starting with residue T372 and extending away from the cleavage site, 1 μg/ml) is “fully sensitive to DSB-induced disruption of CA-SP1 processing”; in assay [1] (single residue deletion at any of positions E365 through V370, 1 μg/ml) it was “significantly reduces the affect of DSB on CA-SP1 processing”. In addition, in assay [2] (SIV), the antiviral activity entry is “lack of antiviral activity”. The Gag processing entry in assay [2] (SIV chronically infected cell line, 1 μg/mL) was “normal Gag processing”. Further, the 50% inhibitory concentration (IC50) in assay [3] (isolate 3, NNRTI-resistant, Y181C) was determined as 1 nM; in assay [3] (isolate 4, NNRTI-resistant, K103N Y181C), 1.3 nM.

(Values after US7537765B2, “Inhibition of HIV-1 replication by disruption of the processing of the viral capsid-spacer peptide 1 protein” (priority 2003, dated 2009).)
